# Reference: patent US20260297081A1, “COMPOUNDS AND METHODS OF TREATING CANCERS” (Cullgen Inc., priority 2023, published 2026)
# pIC50: −log10 of the molar value.
# Tests used:
# Type in all cases: cell-based
# [1] = tested on: Calu-1 cells; assay: Anti-proliferation (viability) of NSCLC Calu-1 cells, 3 days (Table 7, FIG. 2B); conditions: Homo sapiens, 72 h; Calu-1 cells, 3 days, 10-point serial dilution; read-out: GI IC50 in Calu-1
# Method in brief: (§1)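 Heterobifunctional compounds are tested in 10-point serial dilutions on Calu-1 (3-day exposure) and T47D (6-day exposure) cells.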
# [2] = tested on: T47D cells; assay: Anti-proliferation (viability) of ER+ breast cancer T47D cells, 6 days (Table 7, FIG. 2B); conditions: Homo sapiens, 144 h; T47D cells, 6 days, 10-point serial dilution; read-out: GI IC50 in T47D
# Method in brief: as §1
# [3] = tested on: MCF7 cells; assay: Anti-proliferation (viability) of MCF7 cells (Table 7, FIG. 2B); conditions: Homo sapiens, MCF7, MCF7 cells, 3-6 days, 10-point serial dilution; read-out: GI IC50 in MCF-7
# [4] = biological target: CDK4 (Homo sapiens, UniProt P11802+Q16531); assay: CDK4 percentage degradation in Calu-1 cells (Table 6); parameters: Cells that express cyclin D1-3 and CDK4/6 proteins were treated with heterobifunctional compounds; endogenous in cells; host or cells: Calu-1; conditions: 16 hours; for inhibition at 0.04 µM: 40 nM; for inhibition at 0.2 µM: 200 nM
# Method in brief: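 Calu-1 cells exposed to heterobifunctional compounds at 40 nM or 200 nM for 16 h. Cyclin D1 and CDK4 levels measured by Western blot of RIPA lysates (BCA-normalised loading), bands quantified by densitometry and expressed as percentage degradation.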
# Chain of CDK4 (P11802 2-303 limits assumed): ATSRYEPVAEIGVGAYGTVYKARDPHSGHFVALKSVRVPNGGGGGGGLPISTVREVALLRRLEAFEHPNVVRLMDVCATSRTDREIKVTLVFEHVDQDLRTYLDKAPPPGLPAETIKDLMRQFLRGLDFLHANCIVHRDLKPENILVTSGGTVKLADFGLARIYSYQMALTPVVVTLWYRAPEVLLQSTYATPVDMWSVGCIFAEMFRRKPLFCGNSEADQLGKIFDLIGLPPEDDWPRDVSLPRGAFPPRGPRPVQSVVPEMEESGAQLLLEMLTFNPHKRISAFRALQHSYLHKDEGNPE
# Chain of CDK4 (P24385 whole entry partner): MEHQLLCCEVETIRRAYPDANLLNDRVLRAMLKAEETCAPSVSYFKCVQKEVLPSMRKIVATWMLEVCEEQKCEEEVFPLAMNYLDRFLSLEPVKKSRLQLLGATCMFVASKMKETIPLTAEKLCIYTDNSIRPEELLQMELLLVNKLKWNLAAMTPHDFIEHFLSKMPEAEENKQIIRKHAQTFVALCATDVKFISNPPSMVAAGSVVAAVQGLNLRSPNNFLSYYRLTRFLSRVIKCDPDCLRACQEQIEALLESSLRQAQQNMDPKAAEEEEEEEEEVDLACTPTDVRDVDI
# Chain of CDK4 (Q16531 2-1140 limits assumed): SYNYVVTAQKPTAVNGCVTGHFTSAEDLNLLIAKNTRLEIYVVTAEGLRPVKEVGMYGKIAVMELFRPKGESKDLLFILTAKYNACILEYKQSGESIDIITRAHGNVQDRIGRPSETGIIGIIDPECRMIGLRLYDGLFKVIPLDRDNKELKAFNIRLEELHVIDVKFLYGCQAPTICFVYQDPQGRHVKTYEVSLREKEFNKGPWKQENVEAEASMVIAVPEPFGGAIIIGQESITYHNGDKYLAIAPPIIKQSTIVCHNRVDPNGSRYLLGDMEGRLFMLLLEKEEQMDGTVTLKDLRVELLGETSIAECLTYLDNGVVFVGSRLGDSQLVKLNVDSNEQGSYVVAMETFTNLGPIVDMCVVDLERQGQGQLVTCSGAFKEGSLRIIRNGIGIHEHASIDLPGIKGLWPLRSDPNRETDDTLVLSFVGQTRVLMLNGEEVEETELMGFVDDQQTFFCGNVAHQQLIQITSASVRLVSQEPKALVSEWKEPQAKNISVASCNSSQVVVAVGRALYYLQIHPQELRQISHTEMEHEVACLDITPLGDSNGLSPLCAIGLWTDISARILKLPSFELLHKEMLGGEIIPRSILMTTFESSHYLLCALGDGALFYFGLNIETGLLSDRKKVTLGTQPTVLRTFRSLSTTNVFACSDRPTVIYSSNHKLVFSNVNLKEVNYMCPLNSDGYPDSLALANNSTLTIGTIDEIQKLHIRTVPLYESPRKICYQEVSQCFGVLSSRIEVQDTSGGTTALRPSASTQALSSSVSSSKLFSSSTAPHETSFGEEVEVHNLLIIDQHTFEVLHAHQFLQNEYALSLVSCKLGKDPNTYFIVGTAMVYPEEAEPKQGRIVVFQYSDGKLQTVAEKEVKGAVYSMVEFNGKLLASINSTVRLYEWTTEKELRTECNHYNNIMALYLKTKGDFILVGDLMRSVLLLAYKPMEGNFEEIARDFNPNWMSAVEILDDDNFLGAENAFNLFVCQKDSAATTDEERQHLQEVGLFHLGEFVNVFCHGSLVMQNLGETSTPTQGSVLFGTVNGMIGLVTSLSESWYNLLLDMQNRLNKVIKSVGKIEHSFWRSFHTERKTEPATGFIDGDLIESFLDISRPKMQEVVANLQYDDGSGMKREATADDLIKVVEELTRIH
Compound,pIC50 [1],pIC50 [2],pIC50 [3],inhibition at 0.04 µM [4],inhibition at 0.2 µM [4]
"CNc1ccc(C(=O)Nc2cc(C)n(C)n2)c(NC2CC3(C2)CN(C(=O)CCN2CCN(c4ccc(Nc5ncc6c(C)c(C(C)=O)c(=O)n(C7CCCC7)c6n5)nc4)CC2)C3)n1 [CPD-129, 2-((2-(3-(4-(6-((6-Acetyl-8-cyclopentyl-5-methyl-7-oxo-7,8-dihydropyrido[2,3-d]pyrimidin-2-yl)amino)pyridin-3-yl)piperazin-1-yl)propanoyl)-2-azaspiro[3.3]heptan-6-yl)amino)-N-(1,5-dimethyl-1H-pyrazol-3-yl)-6-(methylamino)nicotinamide]",≥ 8.00,7.00 to 7.30,< 7.00,50 to 80%,50 to 80%
"CNc1ccc(C(=O)Nc2ccc(N(C)C)nn2)c(Nc2cnn(CCNC(=O)CN3CCN(c4ccc(Nc5ncc6c(C)c(C(C)=O)c(=O)n(C7CCCC7)c6n5)nc4)CC3)c2)n1 [CPD-24, 2-((1-(2-(2-(4-(6-((6-Acetyl-8-cyclopentyl-5-methyl-7-oxo-7,8-dihydropyrido[2,3-d]pyrimidin-2-yl)amino)pyridin-3-yl)piperazin-1-yl)acetamido)ethyl)-1H-pyrazol-4-yl)amino)-N-(6-(dimethylamino)pyridazin-3-yl)-6-(methylamino)nicotinamide]",7.30 to 8.00,≤ 7.00,< 7.00,50 to 80%,> 80%
"CNc1ccc(C(=O)Nc2ccc(N(C)C)nn2)c(NCCCCn2cc(CN3CCN(c4ccc(Nc5ncc6c(C)c(C(C)=O)c(=O)n(C7CCCC7)c6n5)nc4)CC3)nn2)n1 [CPD-30, 2-((4-(4-((4-(6-((6-Acetyl-8-cyclopentyl-5-methyl-7-oxo-7,8-dihydropyrido[2,3-d]pyrimidin-2-yl)amino)pyridin-3-yl)piperazin-1-yl)methyl)-1H-1,2,3-triazol-1-yl)butyl)amino)-N-(6-(dimethylamino)pyridazin-3-yl)-6-(methylamino)nicotinamide]",7.30 to 8.00,7.00 to 7.30,< 7.00,50 to 80%,> 80%
"CNc1ccc(C(=O)Nc2ccc(N(C)C)nn2)c(NC2CC(CCNC(=O)CN3CCN(c4ccc(Nc5ncc6c(C)c(C(C)=O)c(=O)n(C7CCCC7)c6n5)nc4)CC3)C2)n1 (centres unmarked) [CPD-34, 2-((3-(2-(2-(4-(6-((6-Acetyl-8-cyclopentyl-5-methyl-7-oxo-7,8-dihydropyrido[2,3-d]pyrimidin-2-yl)amino)pyridin-3-yl)piperazin-1-yl)acetamido)ethyl)cyclobutyl)amino)-N-(6-(dimethylamino)pyridazin-3-yl)-6-(methylamino)nicotinamide]",≥ 8.00,≥ 7.30,> 7.30,> 80%,> 80%
"CNc1ccc(C(=O)Nc2ccc(N(C)C)nn2)c(NC2CC3(C2)CC(OCC(=O)N2CCN(c4ccc(Nc5ncc6c(C)c(C(C)=O)c(=O)n(C7CCCC7)c6n5)nc4)CC2)C3)n1 (centres unmarked) [CPD-84, 2-((6-(2-(4-(6-((6-Acetyl-8-cyclopentyl-5-methyl-7-oxo-7,8-dihydropyrido[2,3-d]pyrimidin-2-yl)amino)pyridin-3-yl)piperazin-1-yl)-2-oxoethoxy)spiro[3.3]heptan-2-yl)amino)-N-(6-(dimethylamino)pyridazin-3-yl)-6-(methylamino)nicotinamide]",7.30 to 8.00,7.00 to 7.30,< 7.00,< 30%,< 30%
"CNc1ccc(C(=O)Nc2ccc(N(C)C)nn2)c(Nc2cc(CCNC(=O)CN3CCN(c4ccc(Nc5ncc6c(C)c(C(C)=O)c(=O)n(C7CCCC7)c6n5)nc4)CC3)no2)n1 [CPD-26, 2-((3-(2-(2-(4-(6-((6-Acetyl-8-cyclopentyl-5-methyl-7-oxo-7,8-dihydropyrido[2,3-d]pyrimidin-2-yl)amino)pyridin-3-yl)piperazin-1-yl)acetamido)ethyl)isoxazol-5-yl)amino)-N-(6-(dimethylamino)pyridazin-3-yl)-6-(methylamino)nicotinamide]",7.30 to 8.00,7.00 to 7.30,< 7.00,50 to 80%,50 to 80%
"CNc1ccc(C(=O)Nc2ccc3c(ccn3C)n2)c(NCCCCCNC(=O)CN2CCN(c3ccc(Nc4ncc5c(C)c(C(C)=O)c(=O)n(C6CCCC6)c5n4)nc3)CC2)n1 [CPD-33, 2-((5-(2-(4-(6-((6-Acetyl-8-cyclopentyl-5-methyl-7-oxo-7,8-dihydropyrido[2,3-d]pyrimidin-2-yl)amino)pyridin-3-yl)piperazin-1-yl)acetamido)pentyl)amino)-N-(1-methyl-1H-pyrrolo[3,2-b]pyridin-5-yl)-6-(methylamino)nicotinamide]",7.30 to 8.00,7.00 to 7.30,< 7.00,50 to 80%,> 80%
